Data published in patent EP4803513A1, “SUBSTITUTED QUINAZOLINE COMPOUND, PREPARATION METHOD THEREFOR, PHARMACEUTICAL COMBINATION THEREOF, AND USE THEREOF” (Hongyun Biotech Co., Ltd., priority 2023, dated 2025).

Columns and labels:
Format in all cases: cell-based
WT-BaF3 cells = assay: Cell antiproliferative activity assay (CCK-8), WT-BaF3 (broad-spectrum cytotoxicity); settings: 72 h; WT-BaF3 cells (IL-3 supplemented), CCK-8, 3 days incubation
Summary of the method: (§1)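 Growth inhibition over 3 days, with compound serially diluted 3-fold from a 10 µM top concentration. Cells seeded at 100,000 cells/mL; WT-BaF3 medium carried 10% WEHI supernatant as the IL-3 source. Viability read by CCK-8 OD450 after 2-4 h; IC50 from blank-subtracted curve fit.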

T47D cells = assay: Cell antiproliferative activity assay (CCK-8), T47D; settings: Homo sapiens, 72 h, breast cancer cell line T47D, incubation for 3 days
Experimental: BRK-BaF3, WT-BaF3, WEHI cell line, and breast cancer cell line T47D were cultured using RPMI 1640 Basal medium or DMEM (Dulbecco's Modified Eagle Medium) (Shanghai Peiyuan Biotechnology, L220KJ), supplemented with 10% FBS (Gibco, REF 10099-141C) and 1% P/S (Shanghai Peiyuan Biotechnology, S110JV), in an incubator (Thermo 3020) at 37°C with 5% CO2. Cell viability was above 95%. Cells were passaged at a 3:1 ratio every 3-4 days. For WT-BaF3 cells, WEHI cells were first cultured, and their culture supernatant was filtered through a 0.22 µm filter. This supernatant was added at 10% to the regular culture medium to supplement IL-3 required for WT-BaF3 cell proliferation, which served as the culture medium for WT-BaF3. For testing, cells were first collected and counted, then prepared into a cell suspension at 100,000 cells/mL and plated at 100 µL per well. Drug concentrations started from 10 µM and were serially diluted 3:1. After incubation for 3 days, 20 µL of CCK-8 detection reagent (Targetmol C005) was added to each well. After incubation for 2-4 hours, OD450 was measured using a microplate reader (Varioskan LUX, Thermo Scientific). After subtracting the blank background, the curve was fitted and the IC50 was calculated using XLfit software.
In addition, the following table exemplarily lists the IC50 values of some compounds of the present invention against T47D cells.

BRK-BaF3 cells = assay: Cell antiproliferative activity assay (CCK-8), BRK-BaF3; settings: 72 h, CCK-8, 3 days incubation
Summary of the method: as §1

In the case of `Cc1ccncc1-c1cc(C(C)C)c2nc(Nc3cnn(CCO)c3C)ncc2c1` [I-59], the IC50 (WT-BaF3 cells) is reported as > 2500 nM, the IC50 (T47D cells) is reported as ≤ 500 nM and the IC50 (BRK-BaF3 cells) is reported as ≤ 20 nM.
With `Cc1nn(CCO)cc1Nc1ncc2cc(-c3c(C)n[nH]c3C)cc(C(C)C)c2n1` [I-189] the IC50 (WT-BaF3 cells) was 500 to 2500 nM, the IC50 (T47D cells) was 500 to 1000 nM and the IC50 (BRK-BaF3 cells) was ≤ 20 nM.
For `COc1cc(Nc2ncc3cc(-c4nnccc4C)cc(C4CC4)c3n2)ccc1P(C)(C)=O` [II-67], the IC50 (WT-BaF3 cells) was 100 to 500 nM, the IC50 (T47D cells) was ≤ 500 nM and the IC50 (BRK-BaF3 cells) was ≤ 20 nM.
`COc1cc(Nc2ncc3cc(-c4cccnc4C)cc(C4CC4)c3n2)ccc1P(C)(C)=O` [II-64] was tested, and the IC50 (WT-BaF3 cells) was 500 to 2500 nM, the IC50 (T47D cells) was ≤ 500 nM and the IC50 (BRK-BaF3 cells) was ≤ 20 nM.
In the case of `Cc1nccnc1-c1cc(C(C)C)c2nc(Nc3cn(C)nc3Cl)ncc2c1` [III-101], the IC50 (WT-BaF3 cells) is reported as 500 to 2500 nM, the IC50 (T47D cells) is reported as 500 to 1000 nM and the IC50 (BRK-BaF3 cells) is reported as ≤ 20 nM.
In the case of `CCP(=O)(CC)c1ccc(Nc2ncc3cc(-c4nccnc4C)cc(C4CC4)c3n2)cc1OC` [II-74], the IC50 (WT-BaF3 cells) is reported as 500 to 2500 nM, the IC50 (T47D cells) is reported as ≤ 500 nM and the IC50 (BRK-BaF3 cells) is reported as ≤ 20 nM.
In the case of `Cc1nn(C)cc1Nc1ncc2cc(-c3c[nH]nc3C)cc(C(C)C)c2n1` [III-88], the IC50 (WT-BaF3 cells) is reported as 500 to 2500 nM, the IC50 (T47D cells) is reported as 500 to 1000 nM and the IC50 (BRK-BaF3 cells) is reported as ≤ 20 nM.
In the case of `Cc1nn(CCO)cc1Nc1ncc2cc(-c3cccnc3N)cc(C(C)C)c2n1` [I-27], the IC50 (WT-BaF3 cells) is reported as 500 to 2500 nM, the IC50 (T47D cells) is reported as 500 to 1000 nM and the IC50 (BRK-BaF3 cells) is reported as ≤ 20 nM.
`CNc1cc(Nc2ncc3cc(-c4nccnc4C)cc(C4CC4)c3n2)ccc1P(C)(C)=O` [II-77] was tested, and the IC50 (WT-BaF3 cells) was 100 to 500 nM, the IC50 (T47D cells) was ≤ 500 nM and the IC50 (BRK-BaF3 cells) was ≤ 20 nM.
In the case of `Cc1nn(C)cc1Nc1ncc2cc(-c3cncnc3C)cc(C(C)C)c2n1` [III-92], the IC50 (WT-BaF3 cells) is reported as 100 to 500 nM, the IC50 (T47D cells) is reported as ≤ 500 nM and the IC50 (BRK-BaF3 cells) is reported as ≤ 20 nM.
In the case of `Cc1nccnc1-c1cc(C2CC2)c2nc(Nc3cnn(CC(=O)N(C)C)c3)ncc2c1` [III-132], the IC50 (WT-BaF3 cells) is reported as 500 to 2500 nM, the IC50 (T47D cells) is reported as ≤ 500 nM and the IC50 (BRK-BaF3 cells) is reported as ≤ 20 nM.
With `Cc1ccncc1-c1cc(C(C)C)c2nc(Nc3cn(C)nc3C)ncc2c1` [III-120] the IC50 (WT-BaF3 cells) was 100 to 500 nM, the IC50 (T47D cells) was ≤ 500 nM and the IC50 (BRK-BaF3 cells) was ≤ 20 nM.
In the case of `Cc1nn(CCO)cc1Nc1ncc2cc(-c3cnoc3C)cc(C(C)C)c2n1` [I-193], the IC50 (WT-BaF3 cells) is reported as 100 to 500 nM, the IC50 (T47D cells) is reported as ≤ 500 nM and the IC50 (BRK-BaF3 cells) is reported as ≤ 20 nM.
For `Cc1ncnc(C)c1-c1cc(C(C)C)c2nc(Nc3cnn(CCO)c3)ncc2c1` [I-140], the IC50 (WT-BaF3 cells) was 500 to 2500 nM, the IC50 (T47D cells) was 500 to 1000 nM and the IC50 (BRK-BaF3 cells) was ≤ 20 nM.
With `Cc1nccnc1-c1cc(C(C)C)c2nc(Nc3ccc(P(C)(C)=O)c(C)c3F)ncc2c1` [II-18] the IC50 (WT-BaF3 cells) was > 2500 nM, the IC50 (T47D cells) was 500 to 1000 nM and the IC50 (BRK-BaF3 cells) was ≤ 20 nM.
With `Cc1nccnc1-c1cc(C(C)C)c2nc(Nc3ccc(P(C)(C)=O)cc3)ncc2c1` [II-11] the IC50 (WT-BaF3 cells) was 500 to 2500 nM, the IC50 (T47D cells) was ≤ 500 nM and the IC50 (BRK-BaF3 cells) was ≤ 20 nM.
With `Cc1nn(CCO)cc1Nc1ncc2cc(-c3cc(F)cnc3C)cc(C(C)C)c2n1` [I-41] the IC50 (WT-BaF3 cells) was > 2500 nM, the IC50 (T47D cells) was 500 to 1000 nM and the IC50 (BRK-BaF3 cells) was ≤ 20 nM.
In the case of `Cc1ccc(-c2cc(C(C)C)c3nc(Nc4cn(CCO)nc4C)ncc3c2)c(F)n1` [I-39], the IC50 (WT-BaF3 cells) is reported as 100 to 500 nM, the IC50 (T47D cells) is reported as ≤ 500 nM and the IC50 (BRK-BaF3 cells) is reported as 20 to 100 nM.
With `Cc1ccnnc1-c1cc(C(C)C)c2nc(Nc3cn(C)nc3C)ncc2c1` [III-90] the IC50 (WT-BaF3 cells) was 100 to 500 nM, the IC50 (T47D cells) was ≤ 500 nM and the IC50 (BRK-BaF3 cells) was ≤ 20 nM.
With `[2H]C([2H])([2H])n1cc(Nc2ncc3cc(-c4cc(=O)[nH]cc4C)cc(C(C)C)c3n2)c(C)n1` [III-9] the IC50 (WT-BaF3 cells) was 500 to 2500 nM, the IC50 (T47D cells) was ≤ 500 nM and the IC50 (BRK-BaF3 cells) was ≤ 20 nM.
With `COc1cc(Nc2ncc3cc(-c4nccnc4C)cc(C4CC4)c3n2)ccc1P(C)(C)=O` [II-33] the IC50 (WT-BaF3 cells) was 100 to 500 nM, the IC50 (T47D cells) was ≤ 500 nM and the IC50 (BRK-BaF3 cells) was ≤ 20 nM.
In the case of `Cc1ccc(C#N)cc1-c1cc(C(C)C)c2nc(Nc3cn(C)nc3C)ncc2c1` [III-130], the IC50 (WT-BaF3 cells) is reported as 500 to 2500 nM, the IC50 (T47D cells) is reported as ≤ 500 nM and the IC50 (BRK-BaF3 cells) is reported as ≤ 20 nM.
With `COc1cc(Nc2ncc3cc(-c4nccnc4C)cc(C(C)C)c3n2)ccc1P(C)(C)=O` [II-16] the IC50 (WT-BaF3 cells) was 500 to 2500 nM, the IC50 (T47D cells) was ≤ 500 nM and the IC50 (BRK-BaF3 cells) was ≤ 20 nM.
`Cc1nn(CCO)cc1Nc1ncc2cc(-c3cncnc3C)cc(C3CC3)c2n1` [I-146] was tested, and the IC50 (WT-BaF3 cells) was 500 to 2500 nM, the IC50 (T47D cells) was 500 to 1000 nM and the IC50 (BRK-BaF3 cells) was ≤ 20 nM.
In the case of `COc1ncncc1-c1cc(C(C)C)c2nc(Nc3cn(CCO)nc3C)ncc2c1` [I-125], the IC50 (WT-BaF3 cells) is reported as > 2500 nM, the IC50 (T47D cells) is reported as 500 to 1000 nM and the IC50 (BRK-BaF3 cells) is reported as ≤ 20 nM.
`Cc1nn(CCO)cc1Nc1ncc2cc(-c3cc(O)ccc3F)cc(C(C)C)c2n1` [I-160] was tested, and the IC50 (WT-BaF3 cells) was 100 to 500 nM, the IC50 (T47D cells) was ≤ 500 nM and the IC50 (BRK-BaF3 cells) was ≤ 20 nM.
